Test results published in PubChem BioAssay (NCI).
Several values for one entry are separate records, joined by “and”; a condition that tells them apart may be missing. Equal entries are not always repeated.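 Exposure lasted 48 hours, with cells grown in 96-well plates and compounds tested at five concentrations. GI50: concentration for 50% inhibition of growth. The concentration for full growth arrest is given as TGI.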

Experiments:
Test in all cases: inhibition of tumour cell growth, NCI panel, 48 h
OVCAR-5 ovarian = system: OVCAR-5 ovarian
SW-620 colon = system: SW-620 colon
HCT-116 colon = system: HCT-116 colon
HCT-15 colon = system: HCT-15 colon
HOP-62 NSCLC = system: HOP-62 NSCLC
U251 CNS = system: U251 CNS
KM12 colon = system: KM12 colon
MOLT-4 leukemia = system: MOLT-4 leukemia
OVCAR-3 ovarian = system: OVCAR-3 ovarian
SF-268 CNS = system: SF-268 CNS

| Structure (SMILES) | TGI (OVCAR-5 ovarian) | GI50 (SW-620 colon) [µM] | GI50 (HCT-116 colon) [µM] | TGI (HCT-116 colon) | GI50 (HCT-15 colon) [µM] | TGI (HCT-15 colon) [µM] | GI50 (HOP-62 NSCLC) [µM] | GI50 (U251 CNS) [µM] | GI50 (KM12 colon) [µM] | TGI (KM12 colon) [µM] | GI50 (MOLT-4 leukemia) [µM] | GI50 (OVCAR-3 ovarian) [µM] | TGI (OVCAR-3 ovarian) [µM] | GI50 (SF-268 CNS) [µM] | TGI (SW-620 colon) [µM] | TGI (HOP-62 NSCLC) [µM] | TGI (U251 CNS) [µM] | TGI (MOLT-4 leukemia) [µM] | TGI (SF-268 CNS) [µM] |
| --- | --- | --- | --- | --- | --- | --- | --- | --- | --- | --- | --- | --- | --- | --- | --- | --- | --- | --- | --- |
| COc1ccc(CC2C(=O)NC(C)C(=O)N(C)C3Cc4ccc(cc4)Oc4cc(ccc4O)CC(C(=O)NC(C)C(=O)NC(C)C(=O)N2C)N(C)C3=O)cc1 (centres undefined) | 0.0305 µM and 0.0607 µM | 0.000157 | < 0.0001 | 0.112 µM and 0.0554 µM | 1.27 | 14.9 | 0.00218 | < 0.0001 | < 0.0001 | 0.127 | < 0.0001 | 0.000244 | 0.0438 | < 0.0001 |  |  |  |  |  |
| COc1ccc(-c2c(C(C)=O)c(C)n(C3OC(CO)C(O)C(O)C3O)c(=S)c2C#N)cc1 (centres undefined) | > 100 µM |  |  | > 100 µM |  | > 100 |  |  |  | > 100 |  |  | > 100 |  | > 100 | > 100 | > 100 | > 100 | > 100 |
| NC(CO)c1ccccc1 (centres undefined) | > 100 µM |  |  | > 100 µM |  | > 100 |  |  |  | > 100 |  |  | > 100 |  | > 100 | > 100 | > 100 | > 100 | > 100 |
| CCOC(=O)C(Cc1c(-c2[nH]c3ccccc3c2CC(NC(=O)CNC(C)=O)C(=O)OCC)[nH]c2ccccc12)NC(=O)CNC(C)=O (centres undefined) | > 100 µM |  |  | > 100 µM |  | > 100 |  |  |  | > 100 |  |  | > 100 |  | > 100 | > 100 | > 100 | > 100 | > 100 |
| CC(=O)c1nccc2c1c(C)nc1ccccc12 | > 100 µM |  |  | > 100 µM |  | > 100 |  |  |  | > 100 |  |  | > 100 |  | > 100 | > 100 | > 100 | > 100 | > 100 |
| C=C1C(=O)C[C@@]23CCC[C@@]12CC(O)C3 (some centres undefined) | > 54.2 µM |  |  | 44.5 µM |  | 28.8 |  |  |  | 51.3 |  |  | 33.7 |  | 37.2 | > 100 | > 100 | > 80.7 | > 100 |
